{
  "source": "patent US20210338686A1",
  "about": "“COMBINATION CANCER THERAPY WITH PENTAAZA MACROCYCLIC RING COMPLEX AND PLATINUM-BASED ANTICANCER AGENT” (Galera Labs, LLC, priority 2018, published 2021)",
  "key": {"[1]": {"test_system": "lethal total body irradiation", "conditions": "adult mice, Thompson et al. 2010; cited from earlier work"}, "inflammation": {"test_system": "inflammation", "conditions": "rat model; Salvemini et al. 1999; cited from earlier work"}, "[2]": {"test_system": "acute, radiation-induced oral mucositis", "conditions": "hamster oral mucositis; Murphy et al. 2008; cited from earlier work"}, "[3]": {"test_system": "collagen-induced arthritis", "conditions": "rat collagen-induced arthritis; Salvemini et al. 2001; cited from earlier work"}, "[4]": {"test_system": "experimental model of colitis", "conditions": "rats; Cuzzocrea et al. 2001; cited from earlier work"}, "[5]": {"test_system": "oral mucositis in head-and-neck cancer patients", "conditions": "head-and-neck cancer patients undergoing chemoradiation therapy; Anderson 2015; cited from earlier work"}, "[6]": {"test_system": "cisplatin-induced acute kidney injury (AKI) model, male C57BL/6J mice", "experiment": "Cisplatin-induced acute kidney injury (AKI) model in mice", "assay_type": "in vivo", "description": "4 month old male C57BL/6J mice (young) were purchased from Jackson Laboratories and 18 month old mice (old) were obtained as collaboration with Dr. Amy Sindler (University of Iowa) from the National institute of Aging. All mice were maintained in accordance with ACURF approval #4121235 at the University of Iowa Animal Care facility. Mice were maintained on normal diets and water ad libitum through the course of the experiment.\nAnimals were weighed every other day following the start of treatment with GC4419."}, "[7]": {"test_system": "athymic female Nu/Nu (nude) mice implanted with SQ20B human head and neck squamous cell carcinoma cells", "experiment": "Cisplatin-induced hematotoxicity in nude mice bearing SQ20B tumors", "assay_type": "in vivo", "conditions": "10 mg/kg GC4419 every day added to cisplatin + IR", "experimental": "7 week old athymic female Nu/Nu (nude) mice were implanted in a hind leg with SQ20B human head and neck squamous cell carcinoma cells. […] Mice were assessed for blood counts by tail vein blood collection either 2 days or 2 weeks after the treatment period."}, "[8]": {"test_system": "H1299 human NSCLC cells, modified to inducibly overexpress catalase (CAT) (H1299CAT)", "experiment": "Survival of H1299CAT cells with GC4419, cisplatin and catalase overexpression", "assay_type": "cell-based", "conditions": "24 μM GC4419 added to cisplatin, 120 hrs, FIG. 2", "description": "CAT overexpression in this line (H1299CAT) was induced by administration of doxycycline, which turned on transcription of the inserted catalase genes."}, "[9]": {"test_system": "PARP (poly (ADP ribosyl) polymerase) in H460 NSCLC cells", "experiment": "PARP activation in H460 cells (Western blot, 89 kd active / 116 kd inactive form)", "assay_type": "cell-based, human", "conditions": "24 hr", "description": "PARP is a nuclear enzyme involved in DNA repair of single strand breaks and is activated following cell stress including chemotherapy and irradiation."}, "[10]": {"test_system": "H460 human non-small cell lung carcinoma (NSCLC) cells", "experiment": "Survival of H460 cells in culture with GC4419 and cisplatin", "assay_type": "cell-based", "conditions": "24 μM GC4419 added to cisplatin (indicated concentrations), 120 hrs, vs cisplatin alone; FIG. 1", "experimental": "After 120 hrs the surviving fraction of cells was determined."}, "[11]": {"test_system": "H460 and H1299 (wild type) cells", "experiment": "Hydrogen peroxide (P0-1 probe)", "assay_type": "cell-based, human", "conditions": "FIGS. 9A-9D"}, "[12]": {"test_system": "PARP in H1299 (wild type) NSCLC cells", "experiment": "PARP activation in H1299 (wild type) cells (Western blot)", "assay_type": "cell-based, human", "conditions": "24 hr"}, "[13]": {"test_system": "H460 and H1299 (wild type) cells", "experiment": "Total reactive oxygen species (CellROX probe, flow cytometer)", "assay_type": "cell-based, human", "conditions": "FIGS. 7A-7D", "experimental": "After the treatments and incubations CellROX fluorogenic probes for total ROS were added for 30 minutes continued incubation and the CellROX signal was measured using a flow cytometer."}, "PARP in H1299CAT cells": {"test_system": "PARP in H1299CAT cells", "experiment": "PARP activation in H1299CAT cells with doxycycline induction of CAT overexpression", "assay_type": "cell-based, human", "conditions": "CAT induced with doxycycline, 24 hr", "description": "When treated with doxcycline, H1299CAT cells express greater levels of human catalase (CAT) than the “parent” cells, H1299 (wild type), eliminating all or part of the H2O2 generated from superoxide by GC4419 or other Mn pentaazamacrocyclic dismutase mimetcs."}, "[14]": {"test_system": "H460 and H1299 (wild type) cells", "experiment": "Mitochondrial superoxide (MitoSOX probe, flow cytometer)", "assay_type": "cell-based, human", "conditions": "FIGS. 8A-8D"}, "[15]": {"test_system": "VEGFr inhibitor-induced pulmonary disease", "conditions": "rat model; Tuder et al. 2003; cited from earlier work"}, "[16]": {"conditions": "10 mg/kg GC4419 daily from 4 days prior to 10 mg/kg cisplatin, 72 hours after cisplatin, FIG. 10A"}, "[17]": {"conditions": "24 μM GC4419, both cancer cell lines"}, "[18]": {"conditions": "1 μM cisplatin or cisplatin plus 6 Gy IR"}},
  "data": [
    {"smiles": "[Cl-].[Cl-].[Mn+2].c1cc2nc(c1)CN[C@@H]1CCCC[C@H]1NCCN[C@@H]1CCCC[C@H]1NC2", "note": "[GC4403]", "values": [
      {"measurement": "radiation damage", "setting": "[1]", "result": "attenuate the radiation damage"},
      {"measurement": "inflammation", "setting": "inflammation", "result": "inhibit inflammation"},
      {"measurement": "radiation damage", "setting": "[2]", "result": "attenuate the radiation damage"},
      {"measurement": "joint disease", "setting": "[3]", "result": "prevent joint disease"},
      {"measurement": "injury to the colon", "setting": "[4]", "result": "very significantly reduce the injury to the colon"}
    ]},
    {"smiles": "[Cl][Mn][Cl].c1cc2nc(c1)CN[C@H]1CCCC[C@@H]1NCCN[C@H]1CCCC[C@@H]1NC2", "note": "[GC4419]", "values": [
      {"measurement": "oral mucositis", "setting": "[5]", "result": "reduce oral mucositis"},
      {"measurement": "survival", "setting": "[6]; 10 mg/kg GC4419 daily + 10 mg/kg cisplatin, old mice, FIG. 10D", "result": "prevented cisplatin mortality in the old mice"},
      {"measurement": "body weight", "setting": "[6]; 10 mg/kg GC4419 daily + 10 mg/kg cisplatin, young and old mice, FIG. 10C", "result": "reduced the amount of weight loss in both sets of mice"},
      {"measurement": "kidney injury biomarkers KIM1 and NGAL", "setting": "[6]; 10 mg/kg GC4419 daily + 10 mg/kg cisplatin, FIG. 10B", "result": "prevented that injury"},
      {"measurement": "creatinine level", "setting": "[6]; [16]", "result": "completely prevented these increases"},
      {"measurement": "whole blood urea nitrogen (BUN) level", "setting": "[6]; [16]", "result": "completely prevented these increases"},
      {"measurement": "leukocyte (WBC) and lymphocyte count", "setting": "[7]; 2 days and 2 weeks after the end of treatment, FIG. 11B", "result": "stimulated leukocyte (WBC) and proportionally lymphocyte subset production"},
      {"measurement": "neutrophil percentage", "setting": "[7]; FIG. 11C", "result": "maintained neutrophil percentage at apparently normal levels"},
      {"measurement": "eosinophil percentage", "setting": "[7]; FIG. 11D", "result": "maintained eosinophil percentage at apparently normal levels"},
      {"measurement": "platelets", "setting": "[7]; two days after the end of treatments, FIG. 11A", "result": "significantly restored platelet levels"},
      {"measurement": "surviving fraction of cells", "setting": "[8]; with CAT overexpression (doxycycline induced)", "result": "abrogated the GC4419 contribution to cisplatin response"},
      {"measurement": "surviving fraction of cells", "setting": "[8]; without CAT overexpression (wt), vs cisplatin alone", "result": "decreased the surviving fraction"},
      {"measurement": "PARP activity (ratio of 89 kd active form to 116 kd inactive form)", "setting": "[9]; 24 μM GC4419 added to 1 μM cisplatin, vs cisplatin, FIG. 3", "result": "further and significantly (p<0.01) increased PARP activity"},
      {"measurement": "PARP activity (ratio of 89 kd active form to 116 kd inactive form)", "setting": "[9]; 24 μM GC4419 added to 6 Gy IR + 1 μM cisplatin, FIG. 5", "result": "significantly increased (p<0.01)"},
      {"measurement": "PARP activity (ratio of 89 kd active form to 116 kd inactive form)", "setting": "[9]; 24 μM GC4419 added to 6 Gy IR, vs radiation alone, FIG. 5", "result": "significantly increased PARP activity over that seen with radiation alone"},
      {"measurement": "surviving fraction of cells", "setting": "[10]", "result": "decreased the surviving fraction of H460 cells"},
      {"measurement": "basal levels of H2O2", "setting": "[11]; [17]", "result": "significantly increases both the basal levels of H2O2"},
      {"measurement": "H2O2", "setting": "[11]; 24 μM GC4419 added to cisplatin or cisplatin plus IR, both cancer cell lines", "result": "significantly further increases the increase in H2O2"},
      {"measurement": "PARP activity (ratio of 89 kd active form to 116 kd inactive form)", "setting": "[12]; 24 μM GC4419 added to 10 μM cisplatin, vs cisplatin, FIG. 4", "result": "further and significantly p<0.01) increased PARP activity"},
      {"measurement": "PARP activity (ratio of 89 kd active form to 116 kd inactive form)", "setting": "[12]; 24 μM GC4419 added to 6 Gy IR + 1 μM cisplatin, FIG. 6A", "result": "significantly increased (p<0.0.05)"},
      {"measurement": "PARP activity (ratio of 89 kd active form to 116 kd inactive form)", "setting": "[12]; 24 μM GC4419 added to 6 Gy IR, vs radiation alone, FIG. 6A", "result": "significantly increased PARP activity over that seen with radiation alone"},
      {"measurement": "total ROS (CellROX signal)", "setting": "[13]; 24 μM GC4419 added to cisplatin therapy", "result": "synergistic effect on total ROS"},
      {"measurement": "total ROS (CellROX signal)", "setting": "[13]; 24 μM GC4419 used alone, either cancer cell line", "result": "little effect on total ROS"},
      {"measurement": "PARP activation response to cisplatin", "setting": "PARP in H1299CAT cells; 24 μM GC4419 + 1 μM cisplatin, p<0.01, FIG. 6B", "result": "reduced the PARP activation response"},
      {"measurement": "PARP activation response to IR+cisplatin", "setting": "PARP in H1299CAT cells; 24 μM GC4419 + 6 Gy IR + 1 μM cisplatin, p<0.001, FIG. 6C", "result": "reduced the PARP activation response"},
      {"measurement": "PARP activation response to IR", "setting": "PARP in H1299CAT cells; 24 μM GC4419 + 6 Gy IR, p<0.05, FIG. 6C", "result": "reduced the PARP activation response"},
      {"measurement": "basal levels of mitochondrial superoxide (MitoSOX signal)", "setting": "[14]; [17]", "result": "significantly reduced the basal levels of mitochondrial superoxide"},
      {"measurement": "mitochondrial superoxide (MitoSOX signal)", "setting": "[14]; 24 μM GC4419 added to cisplatin or cisplatin plus IR", "result": "significantly reduced the increase in mitochondrial superoxide"},
      {"measurement": "VEGFr inhibitor-induced pulmonary disease", "setting": "[15]", "result": "attenuate VEGFr inhibitor-induced pulmonary disease"}
    ]},
    {"smiles": "N.N.[Cl][Pt][Cl]", "note": "[cisplatin, reference compound]", "values": [
      {"measurement": "H2O2", "setting": "[11]; [18]", "result": "increase in H2O2"},
      {"measurement": "total ROS (CellROX signal)", "setting": "[13]; [18]", "result": "increased total ROS"},
      {"measurement": "mitochondrial superoxide (MitoSOX signal)", "setting": "[14]; [18]", "result": "increase in mitochondrial superoxide"}
    ]}
  ]
}
